According to patent US20060104902A1, “Method of preselection patients for anti-VEGF, anti-HIF-1 or anti-thioredoxin therapy” (priority 2004, published 2006):

Experiments:
HT-29 xenografts = conditions: up to three hours post-treatment; cited from earlier work
HT-29 tumor xenografts = experiment: DCE-MRI with Gd-BSA: tumor vascular permeability and vascular volume fraction; type: in vivo, SCID mice
human VEGF (hVEGF) = experiment: Human VEGF ELISA in HT-29 xenograft tumors after PX-12; type: in vivo, SCID mice; conditions: PX-12 25 mg/kg ip
Experimental: (§1) FIG. 12. Human VEGF levels (pg/μg protein) in HT-29 xenografts, and VEGF levels (pg/ml) in plasma after treatment with PX-12, 25 mg/kg ip (n=4 mice per time point).
(§2) VEGF detection. Plasma was collected into EDTA tubes and tumors were removed and immediately snap frozen in liquid nitrogen. Tumors were then placed in buffer (10 mM Tris/HCl pH 7.4, and 100 mM NaCl) and homogenized using a PowerGen 125, Fisher Scientific, Pittsburgh, Pa. The suspension was then centrifuged twice at 8,000×g at 4° C. for 15 min. Protein was quantitated in supernatant using the Pierce BCA assay. VEGF levels were quantitated in plasma and tumor lysates using both human (hVEGF) and mouse VEGF […] ELISAs (R&D systems, Minneapolis, Minn.), according the manufactures' instructions.
(§3) This example illustrates the effects of PX-12 on plasma and tumor VEGF levels, as measured by ELISA assays. In these xenografts, hVEGF is derived from the tumor and mVEGF from the host vasculature and stromal tissue, resulting in considerably higher hVEGF than mVEGF in the tumor. Although the endothelium is mouse derived, hVEGF inhibition in xenograft models has been reported to cause obliteration of the host tumor vasculature, implying that hVEGF is active at mouse VEGF receptors VEGFRI (Flt-i) and VEGFR2 (KDR). Therefore, levels of both mouse and human VEGF were measured in the tumor and plasma samples collected.

mouse VEGF (mVEGF) = experiment: Mouse VEGF ELISA in tumor and plasma of HT-29 xenograft mice after PX-12; type: in vivo, SCID mice
Experimental: as §1, §2, §3
Some tumors are reported to secrete VEGF into the plasma which can then act on endothelial cells in a paracrine manner or on tumor cells in an autocrine loop if the tumor expresses the VEGF receptors VEGFRI or VEGFR2. Plasma hVEGF expression was too low to be detected in the plasma from the HT-29 xenografts.

Trx-1 = target: T1, Trx-1 (Homo sapiens, UniProt P10599); conditions: cited from earlier work
T1 sequence (P10599 1-105): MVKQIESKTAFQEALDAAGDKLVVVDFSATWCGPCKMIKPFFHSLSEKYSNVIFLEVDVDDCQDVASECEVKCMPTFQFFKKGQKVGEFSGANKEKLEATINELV

advanced malignancies = conditions: cited from earlier work
human tumor xenografts = conditions: cited from earlier work
current tumor model = conditions: by 24 h post-treatment; cited from earlier work
hypoxic cells = conditions: cited from earlier work

COc1ccc(/C=C\c2cc(OC)c(OC)c(OC)c2)cc1OP(=O)(O)O [CA4P, combretastatin A4 phosphate]
tumor perfusion (HT-29 xenografts): only a small decrease

Cc1ccc2c(=O)c3cccc(CC(=O)O)c3oc2c1C [DMXAA]
tumor perfusion (HT-29 xenografts): considerably decreased

CCC(C)SSc1ncc[nH]1 (stereo not shown) [PX-12, 1-methylpropyl 2-imidazolyl disulfide]
mean reduction in permeability (HT-29 tumor xenografts; 12 hours after PX-12 treatment): 59.2%
mean reduction in permeability (HT-29 tumor xenografts; 24 h post-treatment with PX-12): 51.6%
change in permeability (return to control values) (HT-29 tumor xenografts; 48 hours after PX-12, not significant): +3.4±17.6%
vascular volume fraction of the tumor, control vs treated (HT-29 tumor xenografts; any time point (2-48 h) after PX-12): not significantly modified
mean reduction in tumor blood vessel permeability vs untreated tumors (HT-29 tumor xenografts; within 2 hours after PX-12 injection): 63.4%
tumor VEGF levels (human VEGF (hVEGF); 2 or 12 hours post-treatment): no significant change
hVEGF levels within the tumors (human VEGF (hVEGF); after 24 hours of treatment): significant decrease
mouse plasma VEGF levels (mouse VEGF (mVEGF); 2 hours post treatment, PX-12 25 mg/kg ip): showed a decrease
mouse VEGF in plasma (mouse VEGF (mVEGF); after 24 h of PX-12 treatment, 25 mg/kg ip, P<0.02): significant decrease
mouse VEGF in tumor (mouse VEGF (mVEGF); starting at 2 h, not statistically significant at any time point, PX-12 25 mg/kg ip): only a small decrease
concentrations at which active as a Trx-1 inhibitor (Trx-1): submicromolar
circulating levels of VEGF in patients (advanced malignancies; as soon as 4 hours post drug administration): decrease
antitumor activity in phase I study (advanced malignancies; patients with advanced malignancies): revealed antitumor activity
in vivo antitumor activity (human tumor xenografts; human tumor xenografts in SCID mice): in vivo antitumor activity
expression of HIF 1α and VEGF and microvessel density (human tumor xenografts; xenograft tumors): significant decreases

Cc1[nH]c(/C=C2\C(=O)Nc3ccccc32)c(C)c1CCC(=O)O [SU6668]
fractional plasma volume (current tumor model): decrease

C[N+](C)([O-])CCCNc1c2ccccc2nc2cccc([N+](=O)[O-])c12 [aliphatic N-oxide of nitacrine]
selectivity for hypoxic cells (hypoxic cells): approximately 1500 fold

Avastin: human anti-VEGF antibody Avastin (Bevacizumab, Genentech) [reference compound]
vascular volume fraction VVf (%) (HT-29 tumor xenografts; 1 h post-Tx, HT-29, mean): 4.4%
decrease in vascular volume fraction (HT-29 tumor xenografts; one hour after injection, 20 μl/30 g i.v.): 31.5%
decrease in vascular permeability (HT-29 tumor xenografts; within an hour of injection, 20 μl/30 g i.v.): 75%
